Each structure is given as a SMILES string.

The target of the assay is Solute carrier organic anion transporter family member 2A1 (Homo sapiens, UniProt Q92959). As to the kind of experiment: TP_TRANSPORTER: inhibition of PGE2 uptake in PGT-expressing HeLa cells. In kind it is functional, cell-based.
One may read the Ki as the dissociation constant of the complex between target and ligand, obtained from inhibition or displacement. A high value points to a looser hold on the target. `O=C[C@H](O)COP(=O)(O)O`: the inhibition constant (Ki) is 15 mM.
As for `O=C(OP(=O)(O)O)C(O)COP(=O)(O)O` (configuration not stated), the figure is 57 mM; as for `O=P(O)(O)OC[C@H]1O[C@@H](O)[C@H](O)[C@@H](O)[C@@H]1O`, 31 mM; as for `C[C@@H](O)C(=O)O` [D-LACTIC ACID], 48 mM.
As for `O=P(O)(O)OC[C@H]1O[C@@](O)(COP(=O)(O)O)[C@@H](O)[C@@H]1O` [FRUCTOSE 1,6-DIPHOSPHATE], the figure is 51 mM.
`C=C(OP(=O)(O)O)C(=O)O` [PHOSPHOENOLPYRUVATE] returned an inhibition constant Ki of 13 mM.
Regarding `CC(=O)C(=O)O` [PYRUVATE], affinity was put at a Ki of 26 mM.
